Source: PubChem BioAssay (NCI)
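These data come from cells grown in 96-well plates and exposed to compound for 48 hours at five concentrations. TGI is the concentration that stops growth completely.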

What was measured:
Assay in all cases: DTP human tumour cell line panel, 48 h
NCI/ADR-RES ovarian = system: NCI/ADR-RES ovarian
ACHN renal = system: ACHN renal
OVCAR-3 ovarian = system: OVCAR-3 ovarian
SW-620 colon = system: SW-620 colon
TK-10 renal = system: TK-10 renal
RPMI-8226 leukemia = system: RPMI-8226 leukemia

Structure (SMILES) | TGI (NCI/ADR-RES ovarian) [µM] | TGI (ACHN renal) [µM] | TGI (OVCAR-3 ovarian) [µM] | TGI (SW-620 colon) [µM] | TGI (TK-10 renal) [µM] | TGI (RPMI-8226 leukemia) [µM]
CCC1OC2C(CC=C(C)C)=C3OC(C)(O)C(C)(CC)C(OC(C)=O)C3=C3OC(=O)C=C1C32 (stereo not drawn) | 83.2 | > 100 | > 100 | > 100 | > 100 | > 100
Cc1ccc(NC(=O)c2cc(S(=O)(=O)Nc3n[nH]c(=O)[nH]3)c(SSc3cc(Cl)c(C(=O)Nc4ccc(C)cc4)cc3S(=O)(=O)Nc3n[nH]c(=O)[nH]3)cc2Cl)cc1 | > 100 | > 100 | > 100 | > 100 | > 100 | > 100
COC(=O)c1cc2c(c3c1CC(Cc1ccccc1)C3=O)CCC2 (stereo not drawn) | > 100 | > 100 | > 100 | > 100 | > 100 | > 100
O=C1Cc2c([nH]c3ccc(Br)cc23)-c2cc(O)c(O)cc2N1 | > 100 | > 100 | > 100 | > 100 | > 100 | > 100
CCOC(=O)NNC(=O)NCc1cccc(CNC(=O)NNC(=O)OCC)c1 | > 100 |  | > 100 | > 100 | > 100 | > 100
CCOP1(=O)CC(C)=C(Cl)C(O)C1 (stereo not drawn) | > 100 | > 100 | > 100 | > 100 | > 100 | > 100
O=C(/C=C/c1ccccc1)Oc1ccc(C(=O)/C=C/c2ccc(Cl)cc2)cc1 | > 100 | > 100 | > 100 | > 100 | > 100 | > 100
CSC(=S)Nc1cccc(C)n1 | > 100 | > 100 | > 100 | > 100 | > 100 | > 100
COc1cc(O)c2c(=O)c(O)c(-c3ccc(O)c(OC)c3)oc2c1 | > 100 |  | > 100 | > 100 | > 100 | > 100
Fc1ccc(N2C(=S)SC(=Nc3ccccc3)C2=Nc2ccccc2)cc1 | > 100 | > 100 | > 100 | > 100 | > 100 | > 100
O=CNCNCCO | > 100 | > 100 | > 100 | > 100 | > 100 | > 100
Oc1ccc2cc(Br)ccc2c1-c1c(O)ccc2ccc(Br)cc12 | 27.7 | 28 | 27.8 | 24.2 | 31.2 | 
O=C1CSC2(CC(/C=C/c3cccc([N+](=O)[O-])c3)=NN2c2cccc(S(=O)(=O)O)c2)N1c1nc2ccccc2s1 (stereo not drawn) | 70.1 | 94.6 |  | 76.4 | 39.8 | 39.2
CC(=O)NC1C(OCc2ccccc2)OC(CO)C(O)C1OC(C)C(=O)NC(C)C(=O)NC(CCC(=O)NCCCCNc1c2ccccc2nc2cccc([N+](=O)[O-])c12)C(N)=O (stereo not drawn) | 0.524 | 0.0664 | 1.64 | 0.0785 | 0.128 | 0.0629
O=C(c1cccs1)N(C(=S)OCCOc1ccccc1)c1ccccc1 | 57.7 | 72.1 | 41.6 | 80 | > 100 | 53.9
CCOC(=O)C(=CNc1ccc(NC2=NCC(C)S2)cc1)C(=O)OCC (stereo not drawn) | 95.1 | > 100 | 60.1 | > 100 | > 100 | 32.3
CC(=O)Oc1ccc(/C=C/C(=O)OCCCOC(=O)/C=C/c2ccc(OC(C)=O)c(OC(C)=O)c2)cc1OC(C)=O | > 100 | > 100 | > 100 | > 100 | > 100 | > 100
CCOC(=O)/C=C/CCO[Si](C)(C)C(C)(C)C | > 100 | > 100 | > 100 | > 100 | > 100 | > 100
O=C1C(Cl)C2(CC(/C=C/c3ccccc3)=NN2c2cccc(S(=O)(=O)O)c2)N1c1nc2ccccc2s1 (stereo not drawn) | > 100 | 30.9 |  | 93.6 | 30.9 | 33.8
CC1=NC(=Cc2ccccc2O)C(=O)N1n1c(-c2ccccc2)nc2ccccc2c1=O | 93.5 | > 100 | > 100 | > 100 | > 100 | > 100
O=C(N/N=C/c1ccc([N+](=O)[O-])cc1)Nc1ccc(C(=O)O)cc1 | > 100 | 99.4 | 26 | > 100 | > 100 | > 100
COC(=O)c1ccc(S)c(S(=O)(=O)Nc2n[nH]c(N)n2)c1 | > 100 | > 100 | > 100 | > 100 | > 100 | > 100
NS(=O)(=O)c1nnc(NS(=O)(=O)C(F)(F)F)s1 | > 100 | > 100 | > 100 | > 100 | > 100 | > 100
CCCCc1ccc(-n2sc3ncc(C)cc3c2=O)cc1 | 72 | > 100 | 47.8 | 78 | > 100 | 99
Oc1[nH]c2ccccc2c1N=NC(=S)Nc1ccccc1Cl | 3.48 | 17.2 | 37.6 | 40.3 | 10.3 | 
O=[N+]([O-])/C(C(Cl)=C(Cl)Cl)=C(/Cl)SCc1ccccc1 | 3.62 | 9.06 | 12.1 | 10.2 | 18.9 | 
CC1(C)OCC([C@H]2O[C@@H](CC(=S)NCCCCCCCCCCCCNC(=S)C[C@H]3O[C@@H](C4COC(C)(C)O4)[C@H]4OC(C)(C)O[C@H]43)[C@H]3OC(C)(C)O[C@H]32)O1 (stereo partly drawn) | 94.2 | > 100 | > 100 | > 100 | > 100 | 68.8
COC(=O)[C@]1(NC(=O)c2ccccc2)C[C@H]1C=O | > 100 | > 100 | > 100 | > 100 | > 100 | > 100
Nc1ccc2c(c1)nc1n2C(c2c(F)cccc2F)SC1 (stereo not drawn) | > 100 | > 100 | > 100 | > 100 | > 100 | > 100
O=C(NC1CCN(Cc2ccccc2)CC1)c1ccc(I)cc1 | > 100 | > 100 | > 100 | > 100 | > 100 | > 100
